The record followed here is patent US7632829B2, “Diazepan derivatives” (Hoffmann-La Roche Inc., priority 2006, dated 2009).

The target in this test is T1, human chemokine receptor 2 isoform B (Homo sapiens, UniProt P41597).
T1 construct: host or cells: CHOK1-CCR2B-A5 (CHO-K1)
T1 sequence (P41597 1-360 isoform P41597-2): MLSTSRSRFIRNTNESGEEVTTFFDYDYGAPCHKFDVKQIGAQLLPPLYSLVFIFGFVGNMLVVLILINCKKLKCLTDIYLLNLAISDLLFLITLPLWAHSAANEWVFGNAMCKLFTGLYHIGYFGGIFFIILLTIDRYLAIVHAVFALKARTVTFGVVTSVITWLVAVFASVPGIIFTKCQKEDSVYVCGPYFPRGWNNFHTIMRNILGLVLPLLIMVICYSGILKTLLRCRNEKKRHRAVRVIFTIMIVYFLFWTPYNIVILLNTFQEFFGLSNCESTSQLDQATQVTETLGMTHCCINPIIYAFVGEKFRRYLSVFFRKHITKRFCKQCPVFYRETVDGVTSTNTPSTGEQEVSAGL
Briefly: Calcium mobilization assay (FLIPR, CHOK1-CCR2B-A5 cells, 20 nM MCP-1). In kind it is cell-based. The settings on record: Ca mobilisation assay, CCR2, antagonist activity vs 20 nM MCP-1. A digest of the protocol: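 FLIPR Fluo-4 calcium readout in CHO-K1 cells stably overexpressing human CCR2B; compounds first monitored 80 s for agonist activity, then after 20-30 min at 30 °C challenged with 20 nM MCP-1. Response is max minus basal fluorescence; antagonist value is concentration giving 50% inhibition of specific calcium increase.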
In general terms: A change in cytosolic calcium serves as a functional read-out for many receptors and channels.
As for `O=C(/C=C/c1ccc(Cl)c(F)c1)N1CCC(=O)N(CCCCN2CCC3(CC3)C(O)C2)CC1` (stereo not drawn) [Example 415], the IC50 (usually the concentration at which inhibition is half-maximal) stood at 27 nM.

For the compound `O=C(/C=C/c1ccc(F)c(Cl)c1)N1CCC(=O)N(CCCCN2CCCCC2CO)CC1` (racemic) [Example 387], the IC50 was found to be 584 nM. The same measure for `O=C(/C=C/c1ccc(Cl)c(Cl)c1)N1CCC(=O)N(CCCN2CCC3(CC3)C(O)C2)CC1` (stereo not drawn) [Example 262]: 4 nM; for `CC1CCN(CCCN2CCN(C(=O)C=Cc3ccc(Cl)c(Cl)c3)CCC2=O)CC1O` (single isomer, unassigned) [Example 259, 1-[(E)-3-(3,4-Dichloro-phenyl)-acryloyl]-4-[3-((+, cis)-3-hydroxy-4-methyl-piperidin-1-yl)-propyl]-[1,4]diazepan-5-one]: 57 nM. The same measure for `O=C(/C=C/c1ccc(Cl)c(Cl)c1)N1CCC(=O)N(C[C@@H](O)CN2CC[C@H](CO)[C@H](O)C2)CC1` (mixture of isomers) [Example 328, 1-[(E)-3-(3,4-Dichloro-phenyl)-acryloyl]-4-[(S)-2-hydroxy-3-(cis-3-hydroxy-4-hydroxymethyl-piperidin-1-yl)-propyl]-[1,4]diazepan-5-one]: 28 nM; for “(rac)-1-[(E)-3-(3,4-Dichloro-phenyl)-acryloyl]-4-[2-hydroxy-3-(2-hydroxy-2-hydroxymethyl-piperidin-1-yl)-propyl]-[1,4]diazepan-5-one [Example 307]”: 437 nM. The same measure for `CC1(CO)CCCCN1CC(O)CCN1CCN(C(=O)/C=C/c2ccc(Cl)c(Cl)c2)CCC1=O` (racemic) [Example 363]: 73 nM; for `O=C(/C=C/c1ccc(Cl)c(Cl)c1)N1CCC(=O)N(CC(O)CN2CCN(C3CCCC3)CC2)CC1` (racemic) [Example 298]: 281 nM. With `O=C(/C=C/c1ccc(Cl)c(Cl)c1)N1CCC(=O)N(CCCN2CCCCC2)CC1` [Example 4, 1-[(E)-3-(3,4-Dichloro-phenyl)-acryloyl]-4-(3-piperidin-1-yl-propyl)-[1,4]diazepan-5-one], the IC50 was 150 nM.

Regarding `O=C(/C=C/c1ccc(Cl)c(Cl)c1)N1CCC(=O)N(CC(O)CN2CCC(O)CC2)CC1` (stereo not drawn) [Example 285], the IC50 was 644 nM. Consider `COCC1CCCN(CC(O)CN2CCN(C(=O)/C=C/c3ccc(Cl)c(Cl)c3)CCC2=O)C1` (racemic) [Example 293], for which the IC50 was found to be 1120 nM. The same measure for `O=C(/C=C/c1ccc(Cl)c(Cl)c1)N1CCC(=O)N(C[C@@H](O)CN2CCCCC2)CC1` [Example 167, 1-[(E)-3-(3,4-Dichloro-phenyl)-acryloyl]-4-((S)-2-hydroxy-3-piperidin-1-yl-propyl)-[1,4]diazepan-5-one]: 28 nM.

`O=C(/C=C/c1ccc(Cl)c(Cl)c1)N1CCC(=O)N(CCCN2CCC[C@H]2CO)CC1` [Example 47, (S)-1-[(E)-3-(3,4-Dichloro-phenyl)-acryloyl]-4-[3-(2-hydroxymethyl-pyrrolidin-1-yl)-propyl]-[1,4]diazepan-5-one]: the IC50 is 193 nM. In the case of `O=C(/C=C/c1ccc(F)c(Cl)c1)N1CCC(=O)N(CCCCN2CC[C@H](O)[C@H](F)C2)CC1` (racemic) [Example 390] it was 1100 nM; in that of `COCC1(C)CCCN(CCCN2CCN(C(=O)/C=C/c3ccc(Cl)c(Cl)c3)CCC2=O)C1` (racemic) [Example 249], 1250 nM. With `O=C(/C=C/c1ccc(Cl)c(Cl)c1)N1CCC(=O)N(C(CO)CCCN2CCCCC2)CC1` (racemic) [Example 181, (rac)-1-[(E)-3-(3,4-Dichloro-phenyl)-acryloyl]-4-(1-hydroxymethyl-4-piperidin-1-yl-butyl)-[1,4]diazepan-5-one], the 50% inhibitory concentration (IC50) was 3 nM. Turning to `CC1CC(O)CN(CCCCN2CCN(C(=O)C=Cc3ccc(Cl)c(F)c3)CCC2=O)C1` (mixture of isomers) [Example 421, (rac,cis)-1-[(E)-3-(4-Chloro-3-fluoro-phenyl)-acryloyl]-4-[4-(3-hydroxy-5-methyl-piperidin-1-yl)-butyl]-[1,4]diazepan-5-one], the concentration for half-maximal inhibition (IC50) was found to be 64 nM.

On to `O=C(/C=C/c1ccc(Cl)c(Cl)c1)N1CCC(=O)N(CCCCN2CCCCC2CO)CC1` (racemic) [Example 427, (rac)-1-[(E)-3-(3,4-Dichloro-phenyl)-acryloy]-4-[4-(2-hydroxymethyl-piperidin-1-yl)-butyl]-[1,4]diazepan-5-one], for which the IC50 is 259 nM.

`O=C(/C=C/c1ccc(F)c(Cl)c1)N1CCC(=O)N(CCCN2CCC[C@@H](O)C2)CC1` [Example 193]: the IC50 turned out to be 644 nM. In the case of `O=C(/C=C/c1ccc(F)c(Cl)c1)N1CCC(=O)N(CCCCN2CCCC(CO)C2)CC1` (racemic) [Example 385] it was 310 nM; in that of `O=C(/C=C/c1ccc(Cl)c(Cl)c1)N1CCC(=O)N(CCCCN2CCN(C3CCCC3)CC2)CC1` [Example 438], 369 nM. In the case of `CC1CN(C(=O)/C=C/c2ccc(Cl)c(Cl)c2)CCN(CCCN2CCCCC2)C1=O` (racemic) [Example 187, (rac)-1-[(E)-3-(3,4-Dichloro-phenyl)-acryloyl]-6-methyl-4-(3-piperidin-1-yl-propyl)-[1,4]diazepan-5-one] it was 385 nM; in that of `CC1(CO)CCN(CCCN2CCN(C(=O)/C=C/c3ccc(Cl)c(Cl)c3)CCC2=O)CC1` [Example 254], 108 nM; in that of `O=C(/C=C/c1ccc(Cl)c(Cl)c1)N1CCC(=O)N(CCCN2CCC[C@@H](O)C2)CC1` [Example 91, (R)-1-[(E)-3-(3,4-Dichloro-phenyl)-acryloyl]-4-[3-(3-hydroxy-piperidin-1-yl)-propyl]-[1,4]diazepan-5-one], 148 nM.

Turning to `COC[C@H]1CCN(CCCCN2CCN(C(=O)/C=C/c3ccc(Cl)c(Cl)c3)CCC2=O)C[C@H]1OC` (racemic) [Example 470], the IC50 was determined as 85 nM.

As to `O=C(/C=C/c1cccc(Cl)c1)N1CCC(=O)N(CCN2CCC(c3c[nH]c4cc(F)ccc34)CC2)CC1` [Example 27, 1-[(E)-3-(3-Chloro-phenyl)-acryloyl]-4-{3-[4-(6-fluoro-1H-indol-3-yl)-piperidin-1-yl]-ethyl}-[1,4]diazepan-5-one], the IC50 is 248 nM. In the case of `O=C(C=Cc1ccc(Cl)c(Cl)c1)N1CCC(=O)N(CCCCN2CCC(F)C(O)C2)CC1` (mixture of isomers) [Example 429, (rac,trans)-1-[(E)-3-(3,4-Dichloro-phenyl)-acryloyl]-4-[4-(4-fluoro-3-hydroxy-piperidin-1-yl)-butyl]-[1,4]diazepan-5-one] it was 86 nM. In the case of “(rac)-1-[(E)-3-(3,4-Dichloro-phenyl)-acryloyl]-4-[4-(3-hydroxy-5-methoxymethyl-piperidin-1-yl)-butyl]-[1,4]diazepan-5-one [Example 490]” it was 26 nM. In the case of `O=C(/C=C/c1ccc(Cl)c(Cl)c1)N1CCC(=O)N(CCCN2CCC3(CC3)C(O)C2)CC1` (racemic) [Example 251] it was 8 nM.

With `O=C(C=Cc1ccc(F)c(Cl)c1)N1CCC(=O)N(CCCN2CCC(O)C(F)C2)CC1` (mixture of isomers) [Example 214, (rac,trans)-1-[(E)-3-(3-Chloro-4-fluoro-phenyl)-acryloyl]-4-[3-(3-fluoro-4-hydroxy-piperidin-1-yl)-propyl]-[1,4]diazepan-5-one], the IC50 turned out to be 592 nM. The same measure for `O=C(/C=C/c1ccc(F)c(Cl)c1)N1CCC(=O)N(CCCN2CC[C@H](CO)[C@H](O)C2)CC1` (racemic) [Example 215]: 356 nM. As for `O=C(/C=C/c1ccc(Cl)cc1)N1CCC(=O)N(CCCN2CCC3(CC3)C(O)C2)CC1` (stereo not drawn) [Example 498], the IC50 is 11 nM. In the case of `O=C(C=Cc1ccc(Cl)c(Cl)c1)N1CCC(=O)N(CCNC2CCC(O)(c3ccccn3)CC2)CC1` (stereo not drawn) [Example 105, trans-1-[(E)-3-(3,4-Dichloro-phenyl)-acryloyl]-4-[3-(4-hydroxy-4-pyridin-2-yl-cyclohexylamino)-ethyl]-[1,4]diazepan-5-one] it was 806 nM. The same measure for `CC(C)CN1CCN(CCCN2CCN(C(=O)/C=C/c3ccc(Cl)c(Cl)c3)CCC2=O)CC1` [Example 258]: 375 nM. The same measure for `CC1CCCCC1NCCCN1CCN(C(=O)C=Cc2ccc(Cl)c(Cl)c2)CCC1=O` (mixture of isomers) [Example 64, cis/trans-1-[(E)-3-(3,4-Dichloro-phenyl)-acryloyl]-4-[3-(2-methyl-cyclohexylamino)-propyl]-[1,4]diazepan-5-one]: 391 nM.

In the case of `O=C(/C=C/c1ccc(Cl)c(Cl)c1)N1CCC(=O)N(CCCCN2CC[C@H](CO)[C@H](O)C2)CC1` (racemic) [Example 468], the IC50 came out at 347 nM. Regarding `CC1CCN(CCCN2CCN(C(=O)C=Cc3ccc(Cl)c(F)c3)CCC2=O)CC1O` (single isomer, unassigned) [Example 491, 1-[(E)-3-(4-Chloro-3-fluoro-phenyl)-acryloyl]-4-[3-((+,cis)-3-hydroxy-4-methyl-piperidin-1-yl)-propyl]-[1,4]diazepan-5-one], the IC50 was determined as 216 nM. In the case of `COCC1CCN(CCCCN2CCN(C(=O)/C=C/c3ccc(F)c(Cl)c3)CCC2=O)CC1` [Example 404] it was 95 nM; in that of `O=C(C=Cc1ccc(F)c(Cl)c1)N1CCC(=O)N(CCCN2CCC(F)C(O)C2)CC1` (mixture of isomers) [Example 213, (rac,trans)-1-[(E)-3-(3-Chloro-4-fluoro-phenyl)-acryloyl]-4-[3-(4-fluoro-3-hydroxy-piperidin-1-yl)-propyl]-[1,4]diazepan-5-one], 421 nM.
